# Assay results: EPA's ToxValDB 9.5
# Test system: Rattus norvegicus
# Conditions: oral
# [1] = short-term, duration: 28 days, gavage, M/F, CD(SD)ICS BR, Clinical Observation: Fur-staining Hypoactivity(one animal)Hunched posture(one animal)Weight loss(one animal)Pallor(one animal) + Urinalysis…
# [2] = short-term, duration: 28 days, gavage, M, Sprague-Dawley, Clinical Observation: Locomotor activity decrease, SalivationRespiratory rate decrease, Incomplete eyelid opening + Body Weight Changes: …
# [3] = subchronic, gavage, M, Sprague-Dawley, Water Consumption: increase + Urinalysis: Osmotic pressure decrease, Volume increase, R
# [4] = short-term, duration: 28 days, gavage, M, Sprague-Dawley, Clinical Observation: Salivation + Urinalysis: Volume increase + Blood Chemistry: Ch E increase, T-CHO increase + Absolute Organ Weight: …
# [5] = short-term, duration: 28 days, gavage, F, Sprague-Dawley, Water Consumption: increase + Urinalysis: Volume increase, Osmolarity decrease, Bil increase + Hematology: RBC decrease300 Hgb decrease300 …
# [6] = short-term, duration: 28 days, gavage, M, Sprague-Dawley, Water Consumption: increase + Urinalysis: Volume increase, Osmolarity decrease, Bil increase + Hematology: RBC decrease300 Hgb decrease300 …
# [7] = short-term, duration: 28 days, gavage, F, Sprague-Dawley, Deaths + Clinical Observation: Locomotor activity decrease, Salivation + Body Weight Changes: decrease, Gain decrease + Food Consumption: …
# [8] = short-term, duration: 28 days, gavage, M, Sprague-Dawley, Deaths + Clinical Observation: Locomotor activity decrease, Salivation + Body Weight Changes: decrease, Gain decrease + Food Consumption: …
# [9] = short-term, duration: 28 days, gavage, M/F, Sprague-Dawley, Clinical Observation: Sedation Paleness + Functional Observational Battery: Forelimb grip strength decrease, Motor activity decrease, Motor …
smiles,measurement,setting,value
C=CC(C)(O)CCCC(C)CCCC(C)CCCC(C)C (centres undefined) [Isophytol],NOAEL,[1],500 mg/kg-day
same,NOEL,[1],250 mg/kg-day
"BrCCCCCCCCCCBr [1,10-Dibromodecane-]",NOEL,"short-term, duration: 28 days, gavage, M/F, Sprague-Dawley, Clinical Observation: Salivation + Water Consumption: increase + Blood Chemistry: BUN increase, Cl increase + Absolute Organ Weight: Liver …",< 8 mg/kg-day
N#[N+]c1ccc2c(S(=O)(=O)[O-])cccc2c1[O-].[Na+],NOEL,"subchronic, gavage, M, Sprague-Dawley, Clinical Observation: Loose stool Mucous stool Soiled perineal region Brownish urine + Body Weight Changes: decrease(trend) + Food …",< 40 mg/kg-day
CCCC(C)(COC(N)=O)COC(=O)NC(C)C (centres undefined) [Carisoprodol],NOEL,"subchronic, gavage, M/F, Fischer 344, Deaths + Clinical Observation: Lethargy Ataxia + Absolute Organ Weight: Right kidney increase, Liver increase + Relative Organ Weight: Right…",< 100 mg/kg-day
same,NOEL,"subchronic, gavage, M/F, Fischer 344, Deaths + Clinical Observation: Lethargy Diarrhea Rough hair coat Prostration Urine stain in the vaginal area Ataxia + Body Weight Changes: …",< 100 mg/kg-day
[Cl][Sn][Cl] [Stannous chloride],NOEL,"subchronic, duration: 13 weeks, diet, M/F, Fischer 344, Body Weight Changes: decrease",365 mg/kg-day
O=C(O)CCCN1CCC(O[C@@H](c2ccc(Cl)cc2)c2ccccn2)CC1.O=S(=O)(O)c1ccccc1 [Bepotastine besylate],NOAEL,"short-term, duration: 28 days, gavage, M/F, CD, Clinical Observation: Mydriasis Salivation Soiled perineal region + Body Weight Changes: decrease + Food Consumption: decrease + Urinalysis…",100 mg/kg-day
"CCCCC/C=C/C=C/C=O [(E,E)-2,4-Decadienal]",NOAEL,"chronic, duration: 14 weeks, gavage, M/F, Fischer 344, Clinical Observation: Lethargy + Body Weight Changes: Mean body weight decrease, Body weight gain decrease + Hematology: WBC decrease, SEG …",100 mg/kg-day
CN(C)C(=O)Nc1ccc(Cl)cc1 [Monuron],NOAEL,[2],< 40 mg/kg-day
same,NOEL,[2],< 40 mg/kg-day
CCCCCl [1-Chlorobutane],NOEL,"subchronic, duration: 13 weeks, gavage, M/F, Fischer 344, Deaths + Clinical Observation: Convulsion + Body Weight Changes: decrease + Histopathology: Spleen-Extramedullary hematopoiesis",60 mg/kg-day
"CC(C)Nc1ccc(NC(C)C)c2c1C(=O)c1ccccc1C2=O [1,4-Bis(N-isopropylamino)anthraquinone]",NOEL,"subchronic, duration: 42 days, gavage, M, CD(SD), Clinical Observation: Dark purple feces Purple urine Purple colored skin + Urinalysis: Lite purple colored urine Purple colored urine + …",12 mg/kg-day
Nc1c(S(=O)(=O)O)cc(Br)c2c1C(=O)c1ccccc1C2=O,NOEL,"short-term, duration: 28 days, gavage, M/F, Deaths + Clinical Observation: Polyuria + Body Weight Changes: Body weight gain decrease + Water Consumption: increase + Urinalysis: Urine …",50 mg/kg-day
COc1cc(S(=O)(=O)CCOS(=O)(=O)O)c(C)cc1N,NOEL,"short-term, duration: 28 days, gavage, M, Absolute Organ Weight: Liver increase + Histopathology: Kidney-Eosinophilic droplet, tubular epithelium",30 mg/kg-day
CC(=O)O.O=C(NCC1CCCCN1)c1cc(OCC(F)(F)F)ccc1OCC(F)(F)F (centres undefined) [Flecainide acetate],NOAEL,"chronic, duration: 91 days, gavage, F, Sprague-Dawley, Deaths + Clinical Observation: Patchy hair loss Salivation + Water Consumption: increase + Urinalysis: Volume increase, Protein decrease + …",20 mg/kg-day
same,NOAEL,"chronic, duration: 91 days, gavage, M, Sprague-Dawley, Deaths + Clinical Observation: Patchy hair loss Salivation + Water Consumption: increase + Urinalysis: Volume increase, Protein decrease + …",10 mg/kg-day
CCc1ccccc1N [2-Ethylaniline],NOEL,"subchronic, duration: 42 days, gavage, M, CD(SD), Hematology: RBC decrease, HGB decrease, MCV increase, MCH increase, MCHC decrease, RET increase + Blood Chemistry: Alb increase A/G …",3 mg/kg-day
NCCS(=O)(=O)O [l-Taurine],LOEL,[3],1000 mg/kg-day
same,NOAEL,[3],1000 mg/kg-day
same,NOEL,[3],300 mg/kg-day
CC[Si](Cl)(Cl)Cl [Ethyl silicon trichloride],NOAEL,"short-term, duration: 28 days, gavage, M/F, Wistar, Clinical Observation: Staggering gait + Body Weight Changes: decrease + Relative Organ Weight: Liver increase, (Low and middle doses were …",250 mg/kg-day
Cl.Cl.NCCNCCNCCN [Trientine hydrochloride],NOAEL,"chronic, duration: 92 days, drinking water, F, Fischer 344, Histopathology: Uterus: Increased prevalence of dilatation",669 mg/kg-day
"C=CCCCC=C(C)C [1,6-Octadiene, 7-methyl-]",NOEL,"short-term, duration: 28 days, gavage, M/F, Clinical Observation: Salivation + Blood Chemistry: TG increase",10 mg/kg-day
C=C[Si](OCCOC)(OCCOC)OCCOC [Tris(2-methoxyethoxy)vinylsilane],NOAEL,"short-term, duration: 28 days, gavage, M/F, CD(SD), Body Weight Changes: decrease + Food Consumption: decrease + Hematology: RBC decrease, HGB decrease, HCT decrease, MCHC decrease, RET …",25 mg/kg-day
CO[Si](OC)(OC)c1ccccc1 [Trimethoxyphenylsilane],NOAEL,"short-term, duration: 28 days, gavage, M, Han Wistar, Body Weight Changes: decrease + Food Consumption: decrease + Blood Chemistry: BUN increase, BA increase, T-Cho increase + Absolute Organ …",< 100 mg/kg-day
"ClCc1ccc(-c2ccc(CCl)cc2)cc1 [4,4'-Bis(chloromethyl)-1,1'-biphenyl]",NOEL,"subchronic, gavage, Sprague-Dawley",1000 mg/kg-day
S=c1[nH]c2ccccc2[nH]1 [2-Mercaptobenzimidazole],NOEL,"short-term, duration: 28 days, gavage, M/F, Wistar, Body Weight Changes: decrease + Food Consumption: decrease + Hematology: Hct decrease, Plt decrease, WBC decrease, APTT increase + Blood …",< 2 mg/kg-day
CCC(Cl)C(Cl)C(Cl)CC(Cl)C(Cl)C(C)Cl (centres undefined) [C10-12 chloroalkanes],NOEL,"subchronic, duration: 13 weeks, gavage, M/F, Fischer 344, Clinical Observation: Inactive + Body Weight Changes: decrease + Relative Organ Weight: Liver increase + Histopathology: Liver-Hypertrophy, …",< 313 mg/kg-day
Nc1ccccc1C(=O)O [Anthranilic acid],NOAEL,[4],200 mg/kg-day
same,NOEL,[4],< 200 mg/kg-day
CCCCCCCCCCCCC(C(=O)OC)S(=O)(=O)[O-].[Na+] (centres undefined) [Sodium 1-methoxy-1-oxotetradecane-2-sulfonate],NOEL,"subchronic, diet, F, Crj: CD (SD), Blood Chemistry: TG decrease + Absolute Organ Weight: Testis increase + Relative Organ Weight: Testis increase",249 mg/kg-day
same,NOEL,"subchronic, diet, M/F, Crj: CD (SD), Blood Chemistry: TG decrease + Absolute Organ Weight: Testis increase + Relative Organ Weight: Testis increase",0.3%
same,NOEL,"subchronic, diet, M, Crj: CD (SD), Blood Chemistry: TG decrease + Absolute Organ Weight: Testis increase + Relative Organ Weight: Testis increase",175 mg/kg-day
Nc1ccccc1-c1ccccc1 [2-Biphenylamine],LOEL,[5],30 mg/kg-day
same,NOEL,[5],< 30 mg/kg-day
same,LOEL,[6],100 mg/kg-day
same,NOEL,[6],30 mg/kg-day
O=[N+]([O-])/N=C1\NCCN1Cc1ccc(Cl)nc1 [Imidacloprid],NOEL,"chronic, duration: 96 days, gavage, M/F, Body Weight Changes: Weight gain decrease + Hematology: WBC decrease, QT increase + Blood Chemistry: BUN increase, CL increase, IP decrease…",< 150 ppm
NS(=O)(=O)c1ccccc1 [Benzenesulfonamide],LOAEL,[7],30 mg/kg-day
same,LOEL,[7],30 mg/kg-day
same,NOAEL,[7],6 mg/kg-day
same,NOEL,[7],6 mg/kg-day
same,LOAEL,[8],30 mg/kg-day
same,LOEL,[8],30 mg/kg-day
same,NOAEL,[8],6 mg/kg-day
same,NOEL,[8],6 mg/kg-day
CCOC(N)=O [Urethane],LOAEL,[9],100 mg/kg-day
same,LOEL,[9],100 mg/kg-day
same,NOAEL,[9],20 mg/kg-day
same,NOEL,[9],20 mg/kg-day
same,NOEL,"subchronic, drinking water, F, Fischer 344, Deaths + Body Weight Changes: decrease + Water Consumption: decrease + Hematology: WBC decrease, Lympho decrease + Blood Chemistry: BUN …",10 mg/kg-day
same,NOEL,"subchronic, drinking water, F, Fischer 344, Deaths + Clinical Observation: Thinness, abnormal posture, and ruffled fur + Body Weight Changes: decrease + Water Consumption: decrease + …",11 mg/kg-day
same,NOEL,"subchronic, drinking water, M/F, Fischer 344, Deaths + Body Weight Changes: decrease + Water Consumption: decrease + Hematology: WBC decrease, Lympho decrease + Blood Chemistry: BUN …",< 16.7 mg/kg-day
same,NOEL,"subchronic, drinking water, M/F, Fischer 344, Deaths + Clinical Observation: Thinness, abnormal posture, and ruffled fur + Body Weight Changes: decrease + Water Consumption: decrease + …",< 16.7 mg/kg-day
"O=C1CCc2ccccc2O1 [3,4-Dihydrocoumarin]",NOEL,"subchronic, duration: 13 weeks, gavage, M/F, Fischer 344, Deaths + Body Weight Changes: decrease + Hematology: Plt decrease, Hct decrease, Hgb decrease, RBC decrease, WBC decrease, Lympho decrease…",< 75 mg/kg-day
CCCN(CCC)S(=O)(=O)c1ccc(C(=O)O)cc1 [Probenecid],NOEL,"subchronic, duration: 13 weeks, gavage, M/F, Fischer 344, Clinical Observation: Yellow-brown staining of the perineum + Body Weight Changes: decrease + Absolute Organ Weight: Liver increase, Right …",< 50 mg/kg-day
"CC(C)OC1(OC(C)C)CCCCC1 [1,1-Diisopropoxycyclohexane]",NOEL,"subchronic, gavage, M, Sprague-Dawley, Clinical Observation: Salivation + Food Consumption: increase + Blood Chemistry: T-Cho increase + Absolute Organ Weight: Liver increase, …",40 mg/kg-day
CC(I)C1OCC(CO)O1 (centres undefined) [Iodinated glycerol],NOEL,"subchronic, duration: 13 weeks, gavage, M/F, Fischer 344, Deaths + Body Weight Changes: decrease + Histopathology: Kidney-Tubular cell regeneration Kidney-Calcification",250 mg/kg-day
COC(=O)C1=C(C#N)NC(C)=C(C(=O)OC(C)C)C1c1cccc([N+](=O)[O-])c1 (centres undefined) [Nilvadipine],NOEL,"subchronic, gavage, M/F, Sprague-Dawley, Relative Organ Weight: Heart increase Liver increase Ovary increase + Histopathology: Adrenal-Lipoid increase, of zona glomerulosa",< 9.6 mg/kg-day
COC(=O)CCCC(=O)OC [Dimethyl glutarate],NOAEL,"subchronic, duration: 42 days, gavage, M, CD(SD), Urinalysis: pH decrease(trend) + Histopathology: Stomach-Hyperplasia, squamous, limiting ledge",300 mg/kg-day
CCCC[B-](c1ccccc1)(c1ccccc1)c1ccccc1.CCCC[N+](CCCC)(CCCC)CCCC [Tetrabutylammonium butyltriphenylborate],NOEL,"short-term, duration: 28 days, gavage, M/F, Blood Chemistry: GPT increase, CHE decrease + Histopathology: Thymus-Proliferation, histiocyte Thymus-Atrophy Adrenal-Decreased lipoid",< 3 mg/kg-day
COc1ccccc1OCCNCC(O)COc1cccc2[nH]c3ccccc3c12 (centres undefined) [Carvedilol],NOEL,"chronic, duration: 91 days, gavage, M/F, Wistar, Deaths + Clinical Observation: Salivation Lacrimation Ptosis Locomotor activity decrease + Body Weight Changes: Body weight gain decrease + …",30 mg/kg-day
NCc1ccc(Cl)nc1 [5-(Aminomethyl)-2-chloropyridine],NOEL,"short-term, duration: 28 days, gavage, M/F, Clinical Observation: Salivation Locomotor activity decrease, Respiration rate decrease, Ptosis Lacrimation + Body Weight Changes: Weight …",8 mg/kg-day
